Like-named read-outs stand apart in the source and are kept apart here.
Tests used:
CYP1A2 [1] = experiment: in vitro; settings: human
Description: (§1) GLPG1205 was incubated with monolayer cultures of fresh human hepatocytes from 3 individual donors for 24 hours (messenger ribonucleic acid [mRNA] analysis) or 48 hours (enzyme activity) at 6 different concentrations: 0.5, 1, 5, 10, 50, and 100 μM (0.19, 0.38, 1.89, 3.78, 18.9, and 37.8 μg/mL, respectively). All incubations contained 0.4% dimethylsulfoxide (DMSO). Incubation with 50 μM omeprazole containing 0.1% DMSO was used as a positive control. Incubations with 0.1% and 0.4% DMSO alone were used as negative controls.
Following a 48‐hour incubation period, an enzymatic assay assessed phenacetin O‐deethylase (a CYP1A2 substrate) activity by measuring the CYP1A2‐dependent metabolite acetaminophen in supernatants. Acetaminophen was quantified using liquid chromatography coupled with tandem mass spectrometry (LC‐MS/MS).
(§2) A concentration‐dependent increase in mRNA of <100% was considered a negative finding when the increase in mRNA was less than 20% of the response of the positive control.
(§3) Incubation for CYP1A2 Induction Experiment The incubations for enzyme activity measurements were performed with cell monolayers in 96-well plates and the incubations for mRNA measurements were performed with cell monolayers in 24-well plates.^3
GLPG1205 was incubated with monolayer culture of human fresh hepatocytes from 3 individual donors for 24 or 48 hours, for messenger ribonucleic acid (mRNA) analysis and enzyme activity, respectively, at 6 different concentrations (n = 3): 0.1, 0.5, 1, 5, 10 and 50 µM (0.038, 0.19, 0.38, 1.89, 3.78 and 18.9 µg/mL, respectively). […] Incubation with 50 µM omeprazole containing 0.1% DMSO was used as a positive control. Incubations with 0.1% and 0.4% DMSO alone were used as negative controls. The CMI was William’s E medium with hepatocytes induction additives. Cells were cultured at 37°C in a humidified carbon dioxide/air (5%/95%) atmosphere. Culture media were renewed daily in all wells.
Enzymatic Assay At the end of the 48-hour incubation period, CYP1A2 enzyme activity was measured in intact cells by incubating with phenacetin, a probe substrate. Cells were first washed with minimum essential medium (MEM) devoid of phenol red to remove remaining test compounds or reference inducers and were then incubated for 2 hours at 37°C with 200 µM phenacetin in MEM devoid of phenol red and containing 0.1% DMSO. Assessment of phenacetin O-deethylase activity in supernatants was carried out by measuring the CYP1A2-dependent metabolite acetaminophen. Cell protein content was also determined; protein content was measured according to the bicinchoninic acid method^4 and calculated using a bovine serum albumin standard curve.
A 2-fold dilution of the specimens in a solution of 1 µM D4-acetaminophen in water with 0.1% formic acid was performed and 20 µL were injected into the LC-MS/MS system. The mobile phase consisted of ammonium acetate 5 mM in water (A) and formic acid 0.3% in acetonitrile/methanol, 50/50, v/v. The following gradient was applied with a 1.5 mL/min flow rate and an oven temperature of 40°C: 98% A from 0 minutes; 70% A from 2.5 minutes; 1% A from 2.6 minutes; 1% A from 3.2 minutes; 98% A from 3.25 minutes; 98% A from 4.5 minutes. In this condition, the retention time of acetaminophen was approximately 2.33 minutes. Controls were performed by injecting calibration standards at the beginning and end of each run. […]

CYP1A2 mRNA = experiment: in vitro; settings: human, hepatocytes, 24 h
Description: as §1
(§4) Following a 24‐hour incubation, CYP1A2 mRNA was quantified using real‐time quantitative reverse transcription polymerase chain reaction.
as §2, §3
(§5) GLPG1205 was incubated with monolayer culture of human fresh hepatocytes from 3 individual donors for 24 or 48 hours, for messenger ribonucleic acid (mRNA) analysis and enzyme activity, respectively, at 6 different concentrations (n = 3): 0.1, 0.5, 1, 5, 10 and 50 µM (0.038, 0.19, 0.38, 1.89, 3.78 and 18.9 µg/mL, respectively). […]
(§6) mRNA Analysis At the end of the 24-hour incubation period, the incubation medium was removed and the cell monolayers were washed twice with 500 µL phosphate buffered saline. […] Total RNA and RNA quality were assessed by measuring 260/280 nm and 260/230 nm absorbance ratios. RNA concentrations were used to normalize the quantity of RNA used for the reverse transcriptase assay. […]
(§7) Quantitative real-time reverse transcription polymerase chain reaction (qRT-PCR) was performed using SYBRGreen® validated primers for CYP1A2.^3 The housekeeping gene glyceraldehyde 3-phosphate dehydrogenase (GAPDH) was analyzed in parallel as the control gene. […]
(§8) The fold induction (FI) was determined as: […]

CYP1A2 [2] = experiment: in vitro; settings: human; remark: listed apart in the source
Description: as §1, §4, §2, §3, §5, §6, §7, §8

[3] = Phase 1 drug-drug interaction study: plasma PK of GLPG1205; type: in vivo, human; settings: for AUC: 100 mg
Description: The protein precipitated mixture was centrifuged at approximately 14 000 g for 15 minutes at room temperature. The clear supernatant was diluted with dilution solvent (water with 0.05% of trifluoroacetic acid) and then transferred into LC-MS plates. […] Chromatographic separation was performed on a Kinetex C18 column (50 x 3.0 mm, 2.6 µm from Phenomenex, Torrance, CA, USA) set at 40°C by using a Nexera high performance liquid chromatography (HPLC) system (Shimadzu, Kyoto, Japan) in isocratic elution mode.

[4] = Phenacetin O-deethylase activity, fold induction

O=c1nc(OC[C@@H]2COCCO2)cc2n1CCc1cc(C#CC3CC3)ccc1-2 [GLPG1205, 9‐cyclopropylethynyl‐2‐[(S)‐1‐(1,4)dioxan‐2‐ylmethoxy]‐6,7‐dihydropyrimido[6,1‐a]isoquinolin‐4‐one]
Phenacetin O-deethylase activity, fold induction (CYP1A2 [1]; 48 h, 50 µM): 0.367 ± 0.021 fold | fold induction at 48 h, 0.1 µM (CYP1A2 [1]; [4]): 1.64 ± 0.256 | fold induction at 48 h, 50 µM (CYP1A2 [1]; [4]): 0.335 ± 0.033 | increases in CYP1A2 activity compared with the negative control (0.4% DMSO) (CYP1A2 [1]; hepatocytes, 48 h): ≤ 2 fold | increases in CYP1A2 activity, % of the positive control (omeprazole) (CYP1A2 [1]; hepatocytes, 48 h): lower than 40% | increase in CYP1A2 mRNA expression compared with the vehicle control (CYP1A2 mRNA): greater than 100% | fold induction at 24 h, 1 µM (CYP1A2 [2]; CYP1A2 mRNA, fold induction, mean (SD)): 6.12 ± 0.65 | fold induction at 24 h, 1 µM (CYP1A2 [2]; maximum fold induction of CYP1A2 mRNA): 6 | day by which steady state was reached ([3]; GLPG1205 100 mg once a day, trough plasma concentrations): ≤ 9 days | AUC ([3]; male, human, plasma, oral, day 13, GLPG1205 100 mg once a day, n = 5, arithmetic mean (CV%), read-out: AUC0‐inf): 373 µg·h/mL | AUC ([3]; male, human, plasma, oral, day 13, GLPG1205 100 mg once a day, n = 14, arithmetic mean (CV%), read-out: AUC0‐t): 395 µg·h/mL | Cmax ([3]; male, human, plasma, oral, day 13, GLPG1205 100 mg once a day, n = 14, arithmetic mean (CV%)): 5010 ng/mL | half-life ([3]; male, human, plasma, oral, day 13, GLPG1205 100 mg once a day, n = 14, arithmetic mean (CV%), read-out: t1/2, λz (converted)): 74.1 h | tmax ([3]; male, human, plasma, oral, day 13, GLPG1205 100 mg once a day, n = 14, median (min‐max)): 2 h

Reference: PMC8453848, “Effect of GLPG1205, a GPR84 Modulator, on CYP2C9, CYP2C19, and CYP1A2 Enzymes: In Vitro and Phase 1 Studies” (Clinical Pharmacology in Drug Development, 2021)
